Reference: publication PMC12521541, “A novel D-peptide modulates DCLK1 gelsolin interactions, reducing PDAC tumor growth” (Scientific Reports, 2025)
“Also recorded” adds a separate entry of the source. Like-named read-outs stand apart in the source and are kept apart here. One block for each molecule: values may come before it. Non-standard residues stand in square brackets, D forms with d. Residues, ends and D or L forms follow the SMILES beside them.

Assays:
DCLK1 isoform 1 = experiment: Crossreactivity with DCLK1 isoform 1; type: binding, human
[1] = test system: AsPC-1 pancreatic cancer cells; experiment: Colony formation assay (clonogenicity), AsPC-1; type: cell-based; conditions: blinded study
[2] = test system: Capan-1 pancreatic cancer cells; experiment: Colony formation assay (clonogenicity), Capan-1; type: cell-based; conditions: blinded study
AsPC-1 cells = experiment: PDAC spheroid self-renewal assay, AsPC-1; type: cell-based; conditions: Matrigel 7 days or 0.3% agar 3 weeks
Protocol: (§1) AsPC-1 and CAPAN-1 cancer cells were treated with candidate D-peptides or vehicle control and suspended in growth factor-reduced Matrigel™ for 7 days or 0.3% agar for 3 weeks and monitored for spheroid growth. The size and number of spheroids were analyzed, counted, and then compared between the treatment groups[41],[42].

Capan-1 cells = experiment: PDAC spheroid self-renewal assay, Capan-1; type: cell-based; conditions: Matrigel 7 days or 0.3% agar 3 weeks
Protocol: as §1

[3] = test system: PDAC cell lines AsPC-1 and Capan-1; experiment: Functional bioassays in PDAC cell lines (overall activity); type: cell-based; conditions: summary of bioassays in AsPC-1 and Capan-1
Protocol: (§2) AsPC-1 and CAPAN-1 cells were grown as previously described with varying concentrations of candidate D-peptides[40]. Afterward, we treated cells with TACS MTT Reagent (RND Systems) at 37 C until a dark crystalline precipitate within the cells was observed. NH4OH in DMSO was added and incubated for 10 min while protected from light. We determined the OD550 and averaged it as a percentage of cell proliferation.
as §1

[4] = test system: PDAC cells (AsPC-1 and CAPAN-1); experiment: Proliferation assay (MTT); type: cell-based; conditions: OD550, in vitro
Protocol: as §2

AsPC-1 xenografts = experiment: AsPC-1 xenograft tumor growth; type: in vivo; conditions: for gross inspection of excised xenografts: AsPC-1 flank xenografts, excised after treatment until day 36
Protocol: Athymic nude (Foxn1^nu/Foxn1^nu) mice were purchased from the Jackson Laboratory (Bar Harbor, Maine) and housed in pathogen-free conditions. AsPC-1 cells (1 × 10^7) were injected subcutaneously into the flanks of 4- to 6-week-old mice (n = 3/group). Tumors were measured using a caliper and the volume was calculated as (length × width^2) × 0.5. Once tumors achieved an average size of ~ 100 mm^3 mice were injected via intraperitoneal injection (10 mg/kg, […]) with selected D-peptides. Treatments were continued every three days until day 36. Xenografts were then excised and evaluated by gross inspection.

[5] = Assessment of DCLK1 D-peptide toxicity in mice; type: in vivo; conditions: athymic mice; escalating doses every three days, 750 µg increasing by 500 µg to 4000 µg/mouse; vs saline-treated controls
Protocol: Supplemental Figure 1. Assessment of DCLK1 D-peptide Toxicity in Mice. Mice received escalating doses of D-peptide 1 every three days, starting with 750 µg (equivalent to 210 nM in blood and extravascular fluid) and increasing by 500 µg per dose, reaching a maximum of 4000 µg/mouse. Monitored toxicity indicators included soft feces, urine stains, depression, rough coat, nasal/ocular discharge, hunching, and body weight changes. […] Major organs were collected, and serum was stored for further biochemical analysis.

[6] = test system: DCLK1 isoform 4 / mAb CBT-15; experiment: Competition assay: mAb CBT-15 binding to DCLK1 isoform 4; design: species or system human; conditions: mean ± SEM; *p < 0.01
DCLK1 isoform 4 / pGSN = experiment: ELISA binding of plasma gelsolin (pGSN) to DCLK1 isoform 4; design: species or system human; conditions: for effect of peptide on pGSN binding to DCLK1 isoform 4: peptide 20 mg/well (so in the source), pGSN at 2 µg/ml
Protocol: (§3) Polystyrene microtitre Immulon 2HB plate was coated with freshly prepared (400 ng/50 ml) DCLK1 isoform 4 ([…]) in 0.1 M NaHCO3, pH 8.6, overnight at 4 C. After blocking with 1% gelatin in TTBS at RT, different concentrations of gelsolin or FGF19 were added (2 mg/50ul/well, 1 mg/well, 0.5 mg/well, and 0.25 mg/well at […], proteins diluted in TTBS), and incubated at RT. To study the competitive ability of peptides, we used 20 mg/well of either D-peptide 1, D-peptide 3, D-peptide 5, or the C-terminal peptide antigen for the mAb CBT-15. After incubation at RT, plates were washed with TTBS, and bound gelsolin or FGF19 was detected. Bound plasma gelsolin (ab233671; Abcam, Waltham, MA) was immunodetected with anti-gelsolin Ab (ab11081; Abcam, Waltham, MA) or FGF19 (969-FG-025; Bio-Techne, Minneapolis, MN) immunodetected by anti-FGF19 (sc-390621; Santa Cruz Biotechnology, Dallas, TX). Detection was by alkaline phosphatase-conjugated goat anti-mouse IgG (ab97020; Abcam, Waltham, MA) followed by 1-STEP NBT/BCIP substrate (#34042; ThermoFisher Scientific, Waltham, MA) and quantified at 450 nm on a microplate reader.

DCLK1 isoform 4 / FGF19 = experiment: ELISA binding of FGF19 to DCLK1 isoform 4; design: species or system human
Protocol: as §3

DCLK1 isoform 4 = target: T1, DCLK1 isoform 4 (Homo sapiens, UniProt O15075); experiment: SPR analysis of DCLK1 isoform 4 with Gelsolin and FGF19; type: binding; conditions: for Kinetic 1:1 Ave Kd: kinetic 1:1, average (dissociation rate)
T1 sequence (O15075 687-740 limits assumed): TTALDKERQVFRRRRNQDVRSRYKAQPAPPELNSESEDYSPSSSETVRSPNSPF
Protocol: Purification of human DCLK1 isoform 4 was performed at the University of Oklahoma Protein Production and Characterization Core Facility (Norman, OK) using an E. coli strain BL21(DE3) pLPP containing the pET19-DCLK1 isoform 4 plasmid. For Bio-layer Interferometry (BLI) experiments, a C-terminal DCLK1 isoform 2/4 His-tagged protein was used (NovoPro, Shanghai, China). All His-tagged proteins were dialyzed using PBS/glycerol to remove imidazole.

plasma gelsolin = target: T2, plasma gelsolin (UniProt P06396 28-782); experiment: SPR; format and conditions not told in the text shown (Fig. 4F, G; Suppl. Table 1); conditions: both partners purified
T2 construct: plasma gelsolin (pGSN), bought protein; The source is told for the ELISA only; also called pGSN; source: bought: Abcam (ab233671)

[7] = kinetic 1:1, average, read-out: Kinetic 1:1 Ave KD

T2 sequence (P06396 28-782): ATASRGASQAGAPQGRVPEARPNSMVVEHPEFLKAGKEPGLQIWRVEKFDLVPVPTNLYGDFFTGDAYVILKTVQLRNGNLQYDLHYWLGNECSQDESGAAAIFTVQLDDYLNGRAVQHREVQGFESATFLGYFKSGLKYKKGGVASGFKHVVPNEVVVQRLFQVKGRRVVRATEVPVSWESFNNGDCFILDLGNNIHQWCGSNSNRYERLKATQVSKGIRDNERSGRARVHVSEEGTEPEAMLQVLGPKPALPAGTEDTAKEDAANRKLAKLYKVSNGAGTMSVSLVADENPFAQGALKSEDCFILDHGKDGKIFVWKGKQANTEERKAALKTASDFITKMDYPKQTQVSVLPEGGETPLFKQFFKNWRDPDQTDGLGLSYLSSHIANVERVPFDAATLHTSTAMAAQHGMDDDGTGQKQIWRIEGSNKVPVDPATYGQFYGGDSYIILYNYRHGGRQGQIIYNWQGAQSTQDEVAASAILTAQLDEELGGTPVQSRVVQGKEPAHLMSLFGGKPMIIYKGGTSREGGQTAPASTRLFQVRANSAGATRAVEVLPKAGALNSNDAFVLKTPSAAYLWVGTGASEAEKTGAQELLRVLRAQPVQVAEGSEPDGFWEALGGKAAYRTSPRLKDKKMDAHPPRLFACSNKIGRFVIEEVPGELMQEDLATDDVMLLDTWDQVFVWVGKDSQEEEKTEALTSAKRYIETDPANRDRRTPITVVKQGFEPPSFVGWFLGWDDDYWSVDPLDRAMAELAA

- Kinetic 1:1 Ave Ka (DCLK1 isoform 4; kinetic 1:1, average): 5.09E+03 M^-1s^1
- Kinetic 1:1 Ave Kd (DCLK1 isoform 4): 9.13E-03 s^1
- Kd (DCLK1 isoform 4; [7]): 1790 nM
- Kd (DCLK1 isoform 4; steady-state, average, read-out: Steady-state Affinity Ave KD): 970 nM
Molecule: FGF19: FGF19 (969-FG-025; Bio-Techne)
- FGF19 binding to DCLK1 isoform 4 (DCLK1 isoform 4 / FGF19): bound to DCLK1 isoform 4 similarly to pGSN

- Kinetic 1:1 Ave Ka (DCLK1 isoform 4; kinetic 1:1, average): 5.48E+03 M^-1s^1
- Kinetic 1:1 Ave Kd (DCLK1 isoform 4): 5.47E-04 s^1
- Kd (DCLK1 isoform 4; [7]): 99 nM
- concentration of maximum pGSN binding to DCLK1 isoform 4 (DCLK1 isoform 4 / pGSN; DCLK1-coated plates, pGSN gradient, R^2 of 0.94): 2 µg/ml
- pGSN binding to DCLK1 isoform 4 (DCLK1 isoform 4 / pGSN; pGSN gradient): consistent, linear binding
Molecule: Gelsolin

The remaining lines, values behind:

Molecule: NCC(=O)N[C@H](Cc1c[nH]c2ccccc12)C(=O)N[C@H](Cc1ccc(O)cc1)C(=O)NCC(=O)N[C@H](Cc1c[nH]c2ccccc12)C(=O)NCC(=O)N[C@H](CC(=O)O)C(=O)N[C@H](CC(=O)O)C(=O)O [D-peptide 1] (H-G[dW][dY]G[dW]G[dD][dD]-OH; N-terminus and C-terminus assumed)
- crossreactivity with isoform 1 (DCLK1 isoform 1): minimal crossreactivity with isoform 1
- colony formation (clonogenicity) [1]: significantly reduced colony formation (clonogenicity) at low micromolar concentrations
- colony formation (clonogenicity) [2]: significantly reduced colony formation (clonogenicity) at low micromolar concentrations
- spheroid formation / self-renewal capacity (AsPC-1 cells): markedly impaired self-renewal capacity
- spheroid formation / self-renewal capacity (Capan-1 cells): markedly impaired self-renewal capacity
- potency/activity in the bioassays [3]: high potency in the bioassays
- PDAC cell proliferation [4]: modest in vitro proliferation decreases
- gross inspection of excised xenografts (AsPC-1 xenografts): no visible necrosis or hemorrhage was observed
- gross inspection of excised xenografts (AsPC-1 xenografts; listed as Dpeptide 1): no gross necrosis, hemorrhage, or cavitation
- reduction of tumor volume compared to controls (AsPC-1 xenografts; AsPC-1 xenografts, athymic mice, 10 mg/kg intraperitoneal, until day 36, control peptide D-peptide 3): 60%
- tumor size/growth compared to control (AsPC-1 xenografts; AsPC-1 xenografts, every three days for six doses, 36 days, control D-peptide 3 n = 8, D-peptide 1 n = 9, *p < 0.01): significantly reduced tumor size compared to control
- general toxicity during xenograft treatment (AsPC-1 xenografts; flank xenograft model): without general toxicity in non–DCLK1–expressing tissues
- toxicity [5]: no adverse effects compared to saline-treated controls; also recorded: no apparent toxicity
- competition with mAb CBT-15 for DCLK1 isoform 4 binding [6]: interacts at a site distinct from CBT-15’s binding site; also recorded: its epitope is distinct from that of mAb CBT-15
- effect of peptide on pGSN binding to DCLK1 isoform 4 (DCLK1 isoform 4 / pGSN): did not block the PPI interaction but seemed to improve pGSN binding to DCLK1; also recorded: enhances pGSN binding
- effect of peptide on pGSN binding to DCLK1 isoform 4 (DCLK1 isoform 4 / pGSN; listed as Dpeptide 1): binds a distinct site and allosterically enhances pGSN association
- effect of peptide on FGF19 binding to DCLK1 isoform 4 (DCLK1 isoform 4 / FGF19; peptide 20 mg/well (so in the source)): weak effect with FGF19-DCLK1 association

B1: human DCLK1 isoform 4 (beta-short) (natural protein, UniProt O15075-4 1-433, looked up)
chain: MLELIEVNGTPGSQLSTPRSGKSPSPSPTSPGSLRKQRSSQHGGSSTSLASTKVCSSMDENDGPGEEVSEEGFQIPATITERYKVGRTIGDGNFAVVKECVERSTAREYALKIIKKSKCRGKEHMIQNEVSILRRVKHPNIVLLIEEMDVPTELYLVMELVKGGDLFDAITSTNKYTERDASGMLYNLASAIKYLHSLNIVHRDIKPENLLVYEHQDGSKSLKLGDFGLATIVDGPLYTVCGTPTYVAPEIIAETGYGLKVDIWAAGVITYILLCGFPPFRGSGDDQEVLFDQILMGQVDFPSPYWDNVSDSAKELITMMLLVDVDQRFSAVQVLEHPWVNDDGLPENEHQLSVAGKIKKHFNTGPKPNSTAAGVSVIATTALDKERQVFRRRRNQDVRSRYKAQPAPPELNSESEDYSPSSSETVRSPNSPF
notes: For the library screen the protein was labelled with biotin (NHS-LC-biotin); source: E. coli BL21(DE3) pLPP with the pET19-DCLK1 isoform 4 plasmid, purified
- Kd (plasma gelsolin): ~100 nM
